{"source": "patent US12104173B2", "about": "“Method for differentiation of human pluripotent stem cell lines in suspension culture” (AGENCY FOR SCIENCE, TECHNOLOGY AND RESEARCH, priority 2018, dated 2024)", "key": {"[1]": {"test_system": "hES-3 hESC line", "assay": "CHIR dose: hematopoietic/erythroid differentiation of agitated hPSC-MC aggregates", "assay_type": "cell-based, human", "settings": "for Erythroblast expansion Fold-expansion: optimal dose of CHIR-99021, 24 days in erythroblast expansion medium (static), cumulative", "procedure": "Human pluripotent stem cell-microcarrier (HPSC-MC) aggregates generated from different hPSC lines were differentiated using 3 different CHIR doses (5, 10 and 15 μM for 24 hours) and were evaluated for T-bra (day 2) and KDR+PDGFRβ− (day 4) expression by flow cytometry, induction of key hematopoietic transcription factors by RT-PCR (day 4), hematopoietic precursor expansion (day 14) and erythroblast expansion (day 42).\nTable 2—Hematopoietic differentiation of nine human pluripotent stem cell (hPSC) lines, from expansion in agitated microcarrier culture to erythroblast expansion—This table summarises the different stages of differentiation; hPSC expansion, mesoderm induction, hematopoietic precursor and erythroblast expansion of multiple hPSC-MC aggregate lines differentiated with optimal dose of CHIR-99021. Fold-expansion of hPSC-MC aggregates following 7 days of agitated culture, hematopoietic precursors following 14 days of culture in methylcellulose medium and erythroblast expansion following 24 days in expansion medium are reported. Flow cytometric evaluation of % T-bra+ cells on day 2 and % KDR+ cells on day 4 during mesoderm induction, % CD43+ cells during hematopoietic precursor expansion, % CD235a+ cells and fetal hemoglobin expression during erythroblast expansion stage are summarised. Total erythroid cells per hPSC seeded on day 42 was calculated as number of embryoid bodies derived on day 4 per hPSC seeded*erythroblast fold expansion*percent CD235a+ erythroblast.\nAnalysis of Design of experiments (DoE) outcomes and evaluation of selected conditions generated by the MODDE® software allowed the development of an optimized protocol for hematopoietic mesoderm induction of human pluripotent stem cell-microcarrier (hPSC-MC) aggregates initially expanded under continuous agitation. Approximately 2 to 4 million hPSC-MC aggregates in 3 ml of Stemline® II medium were differentiated as follows: day 1; 30 ng/ml of BMP4, 50 ng/ml VEGF165, 12 μM CHIR-99021 (Selleck Chemicals, USA), 50 ng/ml Activin A, day 2; 30 ng/ml of BMP4, 50 ng/ml VEGF165, 50 ng/ml Activin A, day 3: 30 ng/ml of BMP4, 50 ng/ml VEGF165 and 20 ng/ml bFGF. Four days post-differentiation, single cells derived by TrypLE™ Express (ThermoFisher Scientific) treatment and strained through 40 μm cell strainers (Greiner Bio-one, Germany) were used for hematopoietic precursor and erythroblast expansion and erythroblast terminal maturation as detailed herein. Hematopoietic and erythroblast differentiation were monitored by flow cytometry, quantitative real-time PCR, immunoblotting and microscopic imaging. Oxygen binding affinity of differentiated erythroblast was determined using a Hemox Analyzer (TCS Scientific Corp, USA).\nHPSC-MC aggregates were dissociated into single cells by treatment with TrypLE. Express (ThermoFisher Scientific) for 5 minutes at 37° C., passed through 40 μm cell strainer (Greiner Bio-one), centrifuged at 1300 rpm for 3 minutes to pellet cells, and rinsed once with phosphate buffered saline (PBS) before re-suspension in Stemline II medium. Two hundred thousand cells in 100 μl of Stemline II medium were transferred to a 6-well ultra-low attachment plate and cultured with Blast growth medium (BGM) for 2 weeks in static conditions as detailed herein.\nHematopoietic precursors were mixed with equal volume of Stemline II medium containing 50 ng/ml of SCF (STEMCELL. Technologies) and 3 U/ml EPO (Peprotech, USA), for an additional 7 days. Subsequently, cells were diluted 10-fold with PBS and pelleted by centrifugation at 3000 rpm for 10 minutes. […]"}, "[2]": {"test_system": "hES-3 microcarrier aggregates", "assay": "capillary Western blot of Wnt/β-catenin signalling proteins", "assay_type": "cell-based, human", "settings": "hES-3-MC; upon induction with CHIR (15 μM CHIR, 30 ng/ml BMP4, 40 ng/ml Activin A)", "procedure": "Day 7 hES-3-MC aggregates from static or agitation conditions were subjected to differentiation using BMP4 protocol (50 ng/ml BMP4) or optimized CHIR-based protocol (30 ng/ml BMP4, 40 ng/ml Activin A and 15 μM CHIR). Cell lysates before start of differentiation (0 hours) and 24 hours after onset of differentiation were analysed for proteins involved in Wnt/β-catenin signalling (T-BRA, TCF-1 and LEF-1) and BMP4 signalling (SMAD7, SMAD1 and phospho SMAD1/5) using an automated Capillary Western Blot system (Peggy Sue). All samples including GAPDH as a protein loading control were run in parallel. (A) is an image showing digitalized chemiluminescence signals represented as band intensities. Corresponding molecular weight of detected proteins are indicated. […] Graphical representation of chemiluminescence intensity of proteins (expressed as a percentage of GAPDH expression) involved in (B) Wnt/β-catenin signalling and (C) BMP4 signalling. […]\nCapillary Western blot was performed using a fully automated system, Peggy Sue (Proteinsimple, R&D, USA). Proteins were separated, detected and quantified according to manufacturer's protocol (www.proteinsimple.com) based on size separation (12-230 kDa). […] (all from Cell Signaling Technology)[1:50 diluted SMAD7 (Sigma-Aldrich)] followed by horseradish peroxidase conjugated secondary antibody and detected with Luminol/Peroxidase substrate. […]"}}, "data": [{"compound": "Cc1c[nH]c(-c2cnc(NCCNc3ccc(C#N)cn3)nc2-c2ccc(Cl)cc2Cl)n1", "note": "[CHIR-99021, 6-[[2-[[4-(2,4-Dichlorophenyl)-5-(5-methyl-1H-imidazol-2-yl)-2-pyrimidinyl]amino]ethyl]amino]-3-pyridinecarbonitrile]", "values": [{"measurement": "fold-expansion of hematopoietic precursors", "setting": "[1]; 15 μM CHIR dose, day 14 post differentiation", "result": "6.97±1.35", "unit": "fold"}, {"measurement": "T-Bra+ cells", "setting": "[1]; 15 μM CHIR for 24 hours, day 2, flow cytometry", "result": "18±3.82", "unit": "%"}, {"measurement": "KDR+PDGFRβ- cells", "setting": "[1]; 15 μM CHIR for 24 hours, day 4, flow cytometry", "result": "14.6±0.81", "unit": "%"}, {"measurement": "Total erythroid cells per hPSC seeded (day 42)", "setting": "[1]; optimal dose of CHIR-99021", "result": 244}, {"measurement": "Hematopoietic precursor expansion % CD43", "setting": "[1]; optimal dose of CHIR-99021, 14 days in methyl cellulose medium", "result": 42.8, "unit": "%"}, {"measurement": "Hematopoietic precursor expansion Fold-expansion", "setting": "[1]; optimal dose of CHIR-99021, 14 days in methyl cellulose medium (static)", "result": 6.9, "unit": "fold"}, {"measurement": "Erythroblast expansion Fold-expansion", "setting": "[1]; day 42", "result": 324, "unit": "fold"}, {"measurement": "Erythroblast expansion Fold-expansion", "setting": "[1]; day 42, listed as CHIR", "result": "324±83.97", "unit": "fold"}, {"measurement": "Mesoderm induction % T-Bra", "setting": "[1]; optimal dose of CHIR-99021, day 2", "result": 18, "unit": "%"}, {"measurement": "Erythroblast expansion % CD235a+", "setting": "[1]; optimal dose of CHIR-99021, erythroblast expansion stage", "result": 78.5, "unit": "%"}, {"measurement": "Erythroblast expansion Hemoglobin expression", "setting": "[1]; optimal dose of CHIR-99021, fetal hemoglobin, flow cytometry", "result": 99.3}, {"measurement": "Wnt/β-catenin signalling proteins TCF-1, LEF-1 and T-BRA", "setting": "[2]", "result": "detected as early as 24 hours"}]}]}
